Results as given in US10899910B2, “Quaternary cationic polymers” (ECOLAB USA, INC., priority 2016, dated 2021).

Experiments:
[1] = test system: bacterial spores or thermophiles; test: Anti-spore and anti-thermophile activity; format: cell-based; conditions: about 20 ppm; for Log Reduction: vs control
Procedure: The effect of the compounds on bacterial spores or thermophiles was also tested. Compounds 1 and 4 were incubated separately with spores or thermophiles at a concentration of about 20 ppm, and the reduction in concentration was measured at four time points (See Table 3).

[2] = test system: mixture of aerobic populations from more than 30 cooling systems in North America; test: Non-oxidative antimicrobial efficiency test in cooling water (ASTM E645-02a); format: cell-based, bacteria (specific species not identified); conditions: at the tested concentrations
Procedure: Antimicrobial efficiency of the synthesized compounds was tested using a non-oxidative antimicrobial efficiency test procedure according to ASTM method for microbiocide efficiency in cooling water (E645-02a, 2005). The bacteria used in the efficacy testing comprised a mixture of aerobic populations from more than 30 cooling systems in North America. The specific species were not identified. Those species were grown on R2A agar.
In one experiment, various concentrations (0 ppm, 5 ppm, 10 ppm, 20 ppm, 30 ppm, 40 ppm, and 50 ppm) of Compound 1 were applied to bacteria in water. The log 10 concentration in colony forming units (CFU/ml) was measured at four time points (0 min, 60 min, 240 min, and 1440 min).
The microbial activity of Compounds 1-4 at a concentration of 50 ppm was tested according to the same procedure described above.
The antimicrobial activity of Compound 4 was tested using the same procedures as described above.

[3] = Surface tension measurement (Tracker tensiometer); format: physicochemical; conditions: room temperature
Procedure: Surface tension measurements were conducted on a Tracker tensiometer (Teclis Instruments) at room temperature. Various concentrations of surfactant solutions were prepared and measurements were conducted.
The surface tension as a function of concentration of the cationic surfactant samples were measured and are listed in Table 2, where NT means not tested.

[4] = Corrosion bubble cell test (Linear Polarization Resistance); conditions: 2 ppm with 1% 2ME synergist; CO2-saturated brine/hydrocarbon, 80° C.; three hours baseline (Tables 8, 9)
Procedure: (§1) Cationic polymer salts were evaluated for corrosion performance as compared to a C12-C18 alkyl dimethyl benzyl ammonium chloride via a bubble test procedure. The bubble test simulates low flow areas where little or no mixing of water and oil occurs. The test was conducted using brine (80% of the brine being 3% sodium chloride brine and 20% of the brine being a hydrocarbon containing 75% LVT-200 kerosene oil and 25% xylene). The brine was placed into kettles and purged with carbon dioxide. The brine was continually purged with carbon dioxide to saturate the brine prior to starting the test. After the test began, the test cell was blanketed with carbon dioxide one hour prior to electrode insertion and through the duration of the test to maintain saturation. The kettles were stirred at 150 revolutions per minute (rpm) for the duration of the test to maintain thermal equilibrium at 80° C. The corrosion rate was measured by Linear Polarization Resistance (LPR) techniques. The working electrode used was carbon steel. The counter and reference electrodes were both 1018 carbon steel. The electrodes were all cleaned and polished prior to testing. Data were collected for three hours before 20 ppm of each of the compositions (containing 2 ppm of each of various pentaquaternary cationic polymer salts or the comparative C12-C18 alkyl dimethyl benzyl ammonium chloride and 1% 2-mercaptoethanol (2ME) as synergist in an organic solvent) was dosed into its respective cell. Data were collected overnight. A low concentration of the compositions was used to differentiate between the compositions.
Corrosion bubble cell tests were performed according to the method of Example A1 to evaluate a hexaquaternary cationic polymer salt for corrosion performance as compared to a C12-C18 alkyl dimethyl benzyl ammonium chloride. Data were collected for three hours before 20 ppm of each of the compositions (containing 2 ppm of a hexaquaternary cationic polymer salt or the comparative C12-C18 alkyl dimethyl benzyl ammonium chloride and 1% 2ME as synergist in an organic solvent) was dosed into its respective cell. Data were collected overnight. A low concentration of the compositions was used to differentiate between the compositions.
as §1, with “six” for “three”, “polyethyleneimine-based” for “pentaquaternary”, “cell. However, for the comparative composition, data was only collected three hours before addition of the compositions.” for “cell.”

[5] = test system: collection of aerobic bacteria from 30 water samples in cooling towers across North America; test: Biofilm reduction (biofilm inhibition test, stain absorbance at 590 nm); format: cell-based; conditions: for (Comp. - Single Quat 2)*100 / Single Quat 2: biofilm reduction relative to Single Quat 2
Procedure: Biofilm reduction experiments were conducted to test the efficacy of multi-quaternary cationic polymers compared to single quaternary compounds. Two different compositions were prepared containing single quaternary compounds: a composition (Single Quat 1) comprising about 50% by weight bisoctyl dimethyl ammonium chloride (CAS #5538-94-3) and about 5-10% by weight glycerin; and a composition (Single Quat 2) comprising about 50% by weight didecyl-dimethyl ammonium chloride (CAS #7173-51-5) and about 10-30% by weight ethanol. The test bacteria comprised a collection of aerobic bacteria from 30 water samples in cooling towers across North America. Different concentrations of cationic polymer salts and single quaternary compounds were tested ranging from about 0.8 ppm to about 1000 ppm. Using the biofilm inhibition test protocols, the absorbed stains were extracted and absorbance was measured at 590 nm. The biofilm reduction was calculated by comparing the absorbance of treated vs untreated controls, then averaged over six replicates.

In the case of `CCCCCCCCCCCCCCCCCC[N+](C)(C)CC(O)CN(CCN(CC(O)C[N+](C)(C)C)CC(O)C[N+](C)(C)CCCCCCCCCCCCCCCCCC)CCN(CC(O)C[N+](C)(C)C)CC(O)C[N+](C)(C)CCCCCCCCCCCCCCCCCC.[Cl-].[Cl-].[Cl-].[Cl-].[Cl-]` (centres unmarked) [Compound 4], the Log cfu/ml ([1]; contact time 0 min) is reported as 2.53 Log cfu/ml, the “Log Reduction” value ([1]; contact time 0 min) is reported as −0.04 and the Log cfu/ml ([1]; contact time 60 min) is reported as 1.6 Log cfu/ml. For the same compound, the “Log Reduction” value ([1]; contact time 60 min) was 0.74, the Log cfu/ml ([1]; contact time 240 min) was 0.00 Log cfu/ml and the “Log Reduction” value ([1]; contact time 240 min) was 2.48. The Log cfu/ml ([1]; contact time 1440 min) was 1.78 Log cfu/ml, the “Log Reduction” value ([1]; contact time 1440 min) was 0.75 and the antimicrobial activity [2] was “significant antimicrobial activity”.
Compound `CCCCCCCCCCCCCCCCCC[N+](C)(C)CC(O)CN(CCN(CCN(CC(O)C[N+](C)(C)C)CC(O)C[N+](C)(C)CCCCCCCCCCCCCCCCCC)CC(O)C[N+](C)(C)C)CC(O)C[N+](C)(C)C.[Cl-].[Cl-].[Cl-].[Cl-].[Cl-]` (centres unmarked) [Compound 9] has a Surface tension ([3]; concentration 0.010 %) of 73.11 mN/m, a Surface tension ([3]; concentration 0.025 %) of 69.16 mN/m and a Surface tension ([3]; concentration 0.050 %) of 60.77 mN/m. For the same compound, the Surface tension ([3]; concentration 0.100 %) was 54.69 mN/m, the Surface tension ([3]; concentration 0.200 %) was 52.05 mN/m and the Surface tension ([3]; concentration 0.500 %) was 50.09 mN/m. The Surface tension ([3]; concentration 1.000 %) was 49.38 mN/m, the “% Protection” value [4] was 60% and the Biofilm reduction ([5]; active conc. 0.8 ppm) was 20.5%. The “(Comp. - Single Quat 2)*100 / Single Quat 2” value ([5]; active conc. 0.8 ppm) was 314.7%, the Biofilm reduction ([5]; active conc. 1.6 ppm) was 35.9% and the “(Comp. - Single Quat 2)*100 / Single Quat 2” value ([5]; active conc. 1.6 ppm) was −9.6%. For the same compound, the Biofilm reduction ([5]; active conc. 3.0 ppm) was 41.2%, the “(Comp. - Single Quat 2)*100 / Single Quat 2” value ([5]; active conc. 3.0 ppm) was −43.2% and the Biofilm reduction ([5]; active conc. 6.0 ppm) was 45.4%. The “(Comp. - Single Quat 2)*100 / Single Quat 2” value ([5]; active conc. 6.0 ppm) was −11.1%, the Biofilm reduction ([5]; active conc. 8.0 ppm) was 62.6% and the “(Comp. - Single Quat 2)*100 / Single Quat 2” value ([5]; active conc. 8.0 ppm) was −8.6%. The Biofilm reduction ([5]; active conc. 12.0 ppm) was 70.9%, the “(Comp. - Single Quat 2)*100 / Single Quat 2” value ([5]; active conc. 12.0 ppm) was −13.2% and the Biofilm reduction ([5]; active conc. 16.0 ppm) was 79.0%. For the same compound, the “(Comp. - Single Quat 2)*100 / Single Quat 2” value ([5]; active conc. 16.0 ppm) was −15.5%, the Biofilm reduction ([5]; active conc. 25.0 ppm) was 76.8% and the “(Comp. - Single Quat 2)*100 / Single Quat 2” value ([5]; active conc. 25.0 ppm) was −15.9%. For the same compound, the Biofilm reduction ([5]; active conc. 31.0 ppm) was 46.9%, the “(Comp. - Single Quat 2)*100 / Single Quat 2” value ([5]; active conc. 31.0 ppm) was −50.8% and the Biofilm reduction ([5]; active conc. 50.0 ppm) was 77.6%. For the same compound, the “(Comp. - Single Quat 2)*100 / Single Quat 2” value ([5]; active conc. 50.0 ppm) was −15.9%, the Biofilm reduction ([5]; active conc. 62.0 ppm) was 90.7% and the “(Comp. - Single Quat 2)*100 / Single Quat 2” value ([5]; active conc. 62.0 ppm) was −0.4%. For the same compound, the Biofilm reduction ([5]; active conc. 100.0 ppm) was 97.3%, the “(Comp. - Single Quat 2)*100 / Single Quat 2” value ([5]; active conc. 100.0 ppm) was 41.9% and the Biofilm reduction ([5]; active conc. 125.0 ppm) was 98.9%. The “(Comp. - Single Quat 2)*100 / Single Quat 2” value ([5]; active conc. 125.0 ppm) was 88.6%, the Biofilm reduction ([5]; active conc. 250.0 ppm) was 99.5% and the “(Comp. - Single Quat 2)*100 / Single Quat 2” value ([5]; active conc. 250.0 ppm) was 55.3%. For the same compound, the Biofilm reduction ([5]; active conc. 500.0 ppm) was 99.6%, the “(Comp. - Single Quat 2)*100 / Single Quat 2” value ([5]; active conc. 500.0 ppm) was 23.7% and the Biofilm reduction ([5]; active conc. 1000.0 ppm) was 99.6%. For the same compound, the “(Comp. - Single Quat 2)*100 / Single Quat 2” value ([5]; active conc. 1000.0 ppm) was 33.5% and the “reduction in biofilm formation” value ([5]; at concentrations about 100 ppm) was “greater than 95%”.
